Experimental findings from US12473377B2, “Antibody-ALK5 inhibitor conjugates and their uses” (Synthis Therapeutics, Inc., priority 2016, dated 2025) are described below.

Like-named read-outs stand apart in the source and are kept apart here.

Assay [1] deals with TGF-β-induced luciferase activity in HEK293T cells. Description: TGF-β-induced SMAD luciferase reporter assay in HEK293T cells. The following applies: Homo sapiens, HEK-293T, 24 hours. The format is cell-based. As to the method: Compounds A-D were tested to determine whether they could inhibit TGF-β-induced luciferase activity in HEK293T cells in vitro.
30,000 HEK293T cells were seeded in a 96 well white flat bottom plate overnight. The next day 100 ng of a SMAD luciferase reporter plasmid per well was transfected into the cells using lipofectamine for 24 hours. The next day cells were treated with Compounds A-D and […] TGFβ for 24 hours. Luciferase activity was measured using the Dual-Glo® luciferase assay kit (Promega). The assay was run twice for Compounds A, B, and D, and three times for Compound C.

Assay [2] deals with primary mouse CD4^+ T cells. Nature of the assay: MTS proliferation assay. The format is cell-based. The following applies: for IC50: Mus musculus, CD4+ T; for reversal of TGFβ-mediated inhibition of T cell proliferation (in words): mouse CD4^+ T cells, 1 nM TGF-β1. The protocol: Compounds A-D were tested to determine whether they could inhibit TGF-β signaling in primary mouse CD4^+ T cells.
Primary mouse CD4^+ T cells were isolated from the spleens of C57/B6 mice using the RoboSep™ cell isolation system (Stemcell Technologies). 0.5 μg/ml of hamster anti-mouse CD3e antibody (145-2C11; eBioscience) was coated onto a 96 well flat bottom plate overnight. 1×10^5 purified CD4^+ T cells were incubated with 1 μg/ml soluble hamster anti-mouse CD28 antibody (37.51, BD Biosciences), 1 nM TGF-β1 and 8-fold serial dilutions of Compounds A-D. After 72 hours, cell proliferation was measured using an MTS assay (Promega) in accordance with the manufacturer's instructions.

The test system of assay [3] is Mouse CTLL2 cells. Nature of the assay: CTLL2 proliferation assay (BrdU ELISA). The format is cell-based. As to the method:
Mouse CTLL2 cells were cultured at 1×10^5 cells/well in 0.2 ng/ml IL2. To each well as indicated 1 nM TGF-β, 1 μg/ml ADC, and/or 100 nM ALK5 inhibitor Compound C was added to the wells for 24 hours. Proliferation was quantitated via addition of the BrdU reagent (Abcam) to each well for another 12 hours and then analyzed by ELISA.

Assay [4] deals with GzmB expression in primary CD8^+ T cells. Nature of the assay: Granzyme B expression assay. The format is cell-based, mouse. To be noted: 1 nM TGF-β, ADC1 at DARs 2-4, 4-6 and 6-8, flow cytometry. As to the method: Mouse CD3^+ T cells were purified from mouse spleens using the EasySep™ Mouse T cell isolation kit (negative selection) (Stemcell Technologies). CD3^+ T cells were activated as before using plate bound antiCD3e and soluble anti-CD28 for 48 hours. T cells were washed and re-plated in media with 5% serum plus 1 nM TGF-β−/+ADC.
Golgi stop reagent was added for the last 4 hours and then the cells were immunostained for surface CD8 (BD) and intracellular GzmB (eBioscience) and analyzed via flow cytometry. Granzyme B (GzmB) is a serine protease released by CD8^+ T cells to kill tumor cells. Thus, increased expression of GzmB is indicative of CD8^+ cytotoxic T cell activation.

The test system of assay [5] is Naïve CD4 T cells (iTreg FoxP3 expression). Nature of the assay: iTreg conversion assay. The format is cell-based, mouse. As to the method:
Naïve CD4 T cells were isolated from isolated mouse spleenocytes using a negative selection kit. The cell density was adjusted to 0.4×10^6 cells/ml, and 10 ng/ml of mouse IL-2, 20 ng/ml of TGF-β, and 1 μg/ml of soluble anti-CD28 was added to the cell suspension.
Anti-mouse CD3 antibody at 10 μg/ml was coated on a 24 well plate and incubated at 4° C. overnight. The antibody was then aspirated from the plate. 1 ml of the cell suspension was added to each well of the 24 well plate. ADC1 (DAR 4-6) at 3 μg/ml and 5 μg/ml, anti-transferrin receptor antibody, rat anti-mouse IgG2A isotype control ALK5 ADC, and ALK5 inhibitor Compound C at 100 nM and 1 μM were added to separate wells of the 24 well plate. The cells were then cultured for 72 hours. TfR expression was tested at 48 hours (data not shown). Cells were stained for FoxP3 (eBioscience FoxP3 staining buffer) and sorted by FACS at 72 hours.

The mark [6] stands for this setting: Experiment 1, 100 μM TGFβ, read-out: Experiment 1 IC50.
[7] abbreviates: Experiment 2, 100 μM TGFβ, read-out: Experiment 2 IC50.
[8] abbreviates: Experiment 1, anti-CD3e/anti-CD28, 1 nM TGF-β1, 72 hours.
Where [9] appears, read: Experiment 2, anti-CD3e/anti-CD28, 1 nM TGF-β1, 72 hours, read-out: Experiment 2 IC50.
Where [10] appears, read: Experiment 1, anti-CD3e/anti-CD28, 1 nM TGF-β1, 72 hours, read-out: Experiment 1 IC50.

In the case of `Cc1cccc(-c2nc(N)sc2-c2ccc3ncccc3n2)n1` [Compound A, 4-(6-methylpyridin-2-yl)-5-(1,5-naphthyridin-2-yl)thiazol-2-amine], the IC50 in assay [1] (setting [6]) was determined as 0.0187 µM; in assay [1] (setting [7]), 0.0298 µM; in assay [2] (setting [9]), 0.153 µM. In addition, the “Experiment 1 IC50” value in assay [2] (setting [8]) is reported as “Value not obtained”. The “reversal of TGFβ-mediated inhibition of T cell proliferation (in words)” value in assay [2] is “did not show consistent effects”.
As for `CNCCOc1ccc(-c2cc(-c3c[nH]nc3-c3ccccn3)ccn2)cc1` [Compound B, N-methyl-2-(4-(4-(3-(pyridin-2-yl)-1H-pyrazol-4-yl)pyridin-2-yl)phenoxy)ethan-1-amine], the half-inhibitory concentration (IC50) is 0.0518 µM in assay [1] (setting [6]), 0.0113 µM in assay [1] (setting [7]), 0.06 µM in assay [2] (setting [10]) and 0.034 µM in assay [2] (setting [9]). Further, in assay [2], the “reversal of TGFβ-mediated inhibition of T cell proliferation (in words)” value was “reversed TGFβ-mediated inhibition of T cell proliferation”.
`CNCCOc1ccc(-c2cc(-c3c[nH]nc3-c3cccc(C)n3)ccn2)cc1` [Compound C, N-methyl-2-(4-(4-(3-(6-methylpyridin-2-yl)-1H-pyrazol-4-yl)pyridin-2-yl)phenoxy)ethan-1-amine]: the IC50 came out at 0.0101 µM in assay [1] (setting [6]); 0.0212 µM in assay [1] (setting [7]); 0.0132 µM in assay [1] (Experiment 3, 100 μM TGFβ, read-out: Experiment 3 IC50); 0.02 µM in assay [2] (setting [10]); 0.033 µM in assay [2] (setting [9]). Moreover, the “reversal of TGFβ-mediated inhibition of T cell proliferation (in words)” value in assay [2] is “reversed TGFβ-mediated inhibition of T cell proliferation”. In addition, the “restoration of CTLL2 proliferation in presence of TGF-β” value in assay [3] (100 nM ALK5 inhibitor Compound C, 1 nM TGF-β, 24 hours) was “almost complete reversal of TGF-β inhibition and restoration of CTLL2 proliferation”. The “restoration of GzmB expression” value in assay [4] (listed as ALK5 compound) is listed as “restore GzmB expression”; in assay [4] (listed as free ALK5 inhibitor), “partially restores Granzyme B expression”. The “amount of iTreg generated” value in assay [5] (100 nM free ALK5 inhibitor, 20 ng/ml TGF-β, 72 hours) is on record as “modestly decreased the amount of iTreg generated”. Also, in assay [5] (100 nM of free ALK5 inhibitor (FIG. 12 legend)), the iTreg generation result is recorded as “decreases iTreg generation”.
With `CCNC(=O)c1ccc2c(c1)NC(=O)/C2=C(\Nc1ccc(N(CCNC)S(C)(=O)=O)cc1)c1ccccc1` [Compound D, (Z)-N-ethyl-3-(((4-(N-(2-(methylamino)ethyl)methylsulfonamido)phenyl)amino)(phenyl)methylene)-2-oxoindoline-6-carboxamide], the IC50 in assay [1] (setting [6]) came out at 1.07 µM; in assay [1] (setting [7]), 1.52 µM. Moreover, the “Experiment 1 IC50” value in assay [2] (setting [8]) is “Value not obtained”. Further, the “Experiment 2 IC50” value in assay [2] (Experiment 2, anti-CD3e/anti-CD28, 1 nM TGF-β1, 72 hours) is “Value not obtained”. Further, the “reversal of TGFβ-mediated inhibition of T cell proliferation (in words)” value in assay [2] is given as “an IC50 value was not obtained”.
Regarding TGF-β, the “inhibition of CTLL2 proliferation” value in assay [3] (1 nM TGF-β alone) is reported as “approximately 60%”.
